Measured values from the RepoRT retention time repository (doi:10.1016/j.jchromb.2020.122105).

Columns and labels:
Details in all cases: stereoisomer not certain
[1] = RP, Waters ACQUITY UPLC BEH C18, 100 × 2.1 mm, 1.7 µm, 0.1 mL/min, estimated dead time 2.2 min; A: water + 0.045% formic acid + 0.11% ammonium hydroxide, pH 7; B: methanol; gradient (min/%B) 0/5 5/5 25/95 25.1/100 35/100 35.1/5 45/5
[2] = HILIC, Waters XBridge BEH Amide, 100 × 2.1 mm, 2.5 µm, 0.5 mL/min, estimated dead time 0.44 min; A: water + 0.1% acetic acid + 10 mM ammonium acetate, pH 4; B: 5% water + 95% acetonitrile + 0.1% acetic acid + 10 mM ammonium acetate, pH 4; gradient (min/%B) 0/95 5/95 20/57 25/57 30/95 40/95
[3] = RP, Waters CORTECS T3, 100 × 2.1 mm, 2.7 µm, 0.2 mL/min, estimated dead time 1.1 min; A: water + 0.045% formic acid + 0.11% ammonium hydroxide, pH 7; B: methanol; gradient (min/%B) 0/5 5/5 25/95 25.1/100 35/100 35.1/5 45/5
[4] = HILIC, Merck SeQuant ZIC-HILIC, 150 × 2.1 mm, 5 µm, 0.75 mL/min, estimated dead time 0.44 min; A: water + 10 mM ammonium formate, pH 6; B: 5% water + 95% acetonitrile + 10 mM ammonium formate, pH 6; gradient (min/%B) 0/95 5/95 20/57 25/57 30/95 40/95
[5] = HILIC, Merck SeQuant ZIC-HILIC, 150 × 2.1 mm, 5 µm, 0.75 mL/min, estimated dead time 0.44 min; A: water + 0.1% acetic acid + 10 mM ammonium acetate, pH 4; B: 5% water + 95% acetonitrile + 0.1% acetic acid + 10 mM ammonium acetate, pH 4; gradient (min/%B) 0/95 5/95 20/57 25/57 30/95 40/95
[6] = RP, Waters ACQUITY UPLC BEH C18, 100 × 2.1 mm, 1.7 µm, 0.1 mL/min, estimated dead time 2.2 min; A: water + 0.1% formic acid, pH 3; B: methanol + 0.1% formic acid, pH 3; gradient (min/%B) 0/5 5/5 25/95 25.1/100 35/100 35.1/5 45/5
[7] = RP, Waters CORTECS T3, 100 × 2.1 mm, 2.7 µm, 0.2 mL/min, estimated dead time 1.1 min; A: water + 0.1% formic acid, pH 3; B: methanol + 0.1% formic acid, pH 3; gradient (min/%B) 0/5 5/5 25/95 25.1/100 35/100 35.1/5 45/5
[8] = RP, Thermo Scientific Hypercarb, 150 × 2.1 mm, 5 µm, 0.1 mL/min, estimated dead time 3.3 min; A: water + 0.1% formic acid, pH 3; B: methanol + 0.1% formic acid, pH 3; gradient (min/%B) 0/5 5/5 20/100 35/100 35.1/5 45/5
[9] = RP, Waters CORTECS T3, 100 × 2.1 mm, 2.7 µm, 0.1 mL/min, estimated dead time 2.2 min; A: water + 0.1% formic acid, pH 3; B: methanol + 0.1% formic acid, pH 3; gradient (min/%B) 0/5 5/5 25/95 25.1/100 35/100 35.1/5 45/5
[10] = RP, Waters ACQUITY UPLC BEH C18, 100 × 2.1 mm, 1.7 µm, 0.2 mL/min, estimated dead time 1.1 min; A: water + 0.025% formic acid + 20 mM ammonium acetate + 0.055% ammonium hydroxide, pH 7; B: methanol; gradient (min/%B) 0/5 5/5 25/100 30/100 30.1/5 35/5
[11] = RP, Waters CORTECS T3, 100 × 2.1 mm, 2.7 µm, 0.3 mL/min, estimated dead time 0.73 min; A: water + 0.1% formic acid, pH 3; B: methanol + 0.1% formic acid, pH 3; gradient (min/%B) 0/5 5/5 25/100 30/100 30.1/5 35/5
[12] = RP, Waters ACQUITY UPLC BEH C18, 100 × 2.1 mm, 1.7 µm, 0.1 mL/min, estimated dead time 2.2 min; A: water + 0.1% formic acid, pH 3; B: methanol + 0.1% formic acid, pH 3; gradient (min/%B) 0/5 5/5 25/100 30/100 30.1/5 35/5
[13] = RP, Waters CORTECS T3, 100 × 2.1 mm, 2.7 µm, 0.1 mL/min, estimated dead time 2.2 min; A: water + 0.1% formic acid, pH 3; B: methanol + 0.1% formic acid, pH 3; gradient (min/%B) 0/0 1/0 6/5 30/100 35/100 35.1/0 40/0
[14] = RP, Waters CORTECS T3, 100 × 2.1 mm, 2.7 µm, 0.3 mL/min, estimated dead time 0.73 min; A: water + 0.1% formic acid, pH 3; B: methanol + 0.1% formic acid, pH 3; gradient (min/%B) 0/0 5/0 25/100 30/100 30.1/0 35/0
[15] = RP, Waters ACQUITY UPLC BEH C18, 100 × 2.1 mm, 1.7 µm, 0.2 mL/min, estimated dead time 1.1 min; A: water + 0.025% formic acid + 20 mM ammonium acetate + 0.055% ammonium hydroxide, pH 7; B: methanol; gradient (min/%B) 0/5 5/5 25/100 30/100 30.1/5 35/5; remark: listed apart in the source
[16] = RP, Waters CORTECS T3, 100 × 2.1 mm, 2.7 µm, 0.3 mL/min, estimated dead time 0.73 min; A: water + 0.1% formic acid, pH 3; B: methanol + 0.1% formic acid, pH 3; gradient (min/%B) 0/5 5/5 25/95 25.1/100 35/100 35.1/5 45/5
[17] = RP, Waters CORTECS T3, 100 × 2.1 mm, 2.7 µm, 0.15 mL/min, estimated dead time 1.5 min; A: water + 0.1% formic acid, pH 3; B: methanol + 0.1% formic acid, pH 3; gradient (min/%B) 0/0 1/0 6/5 30/100 35/100 35.1/0 40/0
[18] = RP, Waters CORTECS T3, 100 × 2.1 mm, 2.7 µm, 0.3 mL/min, estimated dead time 0.73 min; A: water + 0.1% formic acid, pH 3; B: methanol + 0.1% formic acid, pH 3; gradient (min/%B) 0/0 1/0 6/5 30/100 35/100 35.1/0 40/0
[19] = RP, Waters CORTECS T3, 100 × 2.1 mm, 2.7 µm, 0.2 mL/min, estimated dead time 1.1 min; A: water + 0.1% formic acid, pH 3; B: methanol + 0.1% formic acid, pH 3; gradient (min/%B) 0/0 1/0 6/5 30/100 35/100 35.1/0 40/0
[20] = RP, Waters CORTECS T3, 100 × 2.1 mm, 2.7 µm, 0.25 mL/min, estimated dead time 0.88 min; A: water + 0.1% formic acid, pH 3; B: methanol + 0.1% formic acid, pH 3; gradient (min/%B) 0/0 1/0 6/5 30/100 35/100 35.1/0 40/0
[21] = RP, Waters CORTECS T3, 100 × 2.1 mm, 2.7 µm, 0.25 mL/min, estimated dead time 0.88 min; A: water + 0.1% formic acid, pH 3; B: methanol + 0.1% formic acid, pH 3; gradient (min/%B) 0/5 5/5 25/95 25.1/100 35/100 35.1/5 45/5
[22] = RP, Waters CORTECS T3, 100 × 2.1 mm, 2.7 µm, 0.2 mL/min, estimated dead time 1.1 min; A: water + 0.1% formic acid, pH 3; B: methanol + 0.1% formic acid, pH 3; gradient (min/%B) 0/0 1/0 6/5 30/100 35/100 35.1/0 40/0; remark: listed apart in the source
[23] = RP, Waters ACQUITY UPLC BEH C18, 100 × 2.1 mm, 1.7 µm, 0.2 mL/min, estimated dead time 1.1 min; A: water + 0.1% formic acid, pH 3; B: methanol + 0.1% formic acid, pH 3; gradient (min/%B) 0/5 5/5 25/100 30/100 30.1/5 35/5
[24] = RP, Waters CORTECS T3, 100 × 2.1 mm, 2.7 µm, 0.3 mL/min, estimated dead time 0.73 min; A: water + 0.1% formic acid, pH 3; B: methanol + 0.1% formic acid, pH 3; gradient (min/%B) 0/0 5/0 25/100 30/100 30.1/0 35/0; remark: listed apart in the source
[25] = RP, Waters CORTECS T3, 100 × 2.1 mm, 2.7 µm, 0.3 mL/min, estimated dead time 0.73 min; A: water + 0.1% formic acid, pH 3; B: methanol + 0.1% formic acid, pH 3; gradient (min/%B) 0/0 1/0 6/5 30/100 35/100 35.1/0 40/0; remark: listed apart in the source

SMILES	LC retention time [2]	LC retention time [4]	LC retention time [5]	LC retention time [6]	LC retention time [7]	further results
CCCCCCCCCCCCCCCC(=O)OCC(COP(=O)(O)OCCN)OC(=O)CCCCCCCCCCCCCCC (racemic) [1,2-DIPALMITOYL-RAC-GLYCERO-3-PHOSPHOETHANOLAMINE]	6.05 min	7.77 min				LC retention time [1]: 36.9 min; LC retention time [3]: 28.7 min
C=CC1=C(C)C(=Cc2[nH]c(Cc3[nH]c(C=C4NC(=O)C(C)=C4C=C)c(C)c3CCC(=O)O)c(CCC(=O)O)c2C)NC1=O [BILIRUBIN]		1.06 min	1.32 min			LC retention time [1]: 26.9 min; LC retention time [3]: 24.4 min
OCC1OC(OCC2OC(OC3(CO)OC(CO)C(O)C3O)C(O)C(O)C2O)C(O)C(O)C1O [D-(+)-RAFFINOSE]				2.67 min	2.67 min	
O=C([O-])[C@H](O)[C@@H](O)[C@H](O)[C@H](O)CO [D-GLUCONATE]	17 min	13 min	12.9 min		2.58 min	
NC(C(=O)O)C(O)C(O)C(O)CO (stereo not given) [GLUCOSAMINATE]	14.7 min	14.3 min	14.2 min		2.45 min	LC retention time [8]: 4.77 min
O=c1[nH]cnc2nc[nH]c12 [HYPOXANTHINE]	3.97 min	3.94 min				LC retention time [9]: 2.72 min; LC retention time [10]: 1.38 min; LC retention time [11]: 1.33 min; LC retention time [12]: 2.8 min

The next lines start with results.

LC retention time [2]	LC retention time [4]	LC retention time [5]	LC retention time [6]	LC retention time [7]	SMILES	further results
13.4 min	13.4 min	13.4 min		2.49 min	N[C@@H](CS(=O)(=O)O)C(=O)O [L-CYSTEIC ACID]	LC retention time [8]: 19.4 min
0.63 min					COc1ccc2[nH]cc(CCNC(C)=O)c2c1 [MELATONIN]	LC retention time [9]: 17.7 min; LC retention time [10]: 14.4 min; LC retention time [13]: 14.4 min; LC retention time [14]: 13.6 min; LC retention time [15]: 14.4 min; LC retention time [1]: 17.8 min; LC retention time [16]: 13.1 min; LC retention time [17]: 17.5 min; LC retention time [11]: 12.8 min; LC retention time [18]: 14.8 min; LC retention time [3]: 14.5 min; LC retention time [12]: 17.6 min; LC retention time [19]: 16.2 min; LC retention time [20]: 15.4 min
12.1 min		11.8 min	2.7 min	2.67 min	CC(=O)NC(CC(N)=O)C(=O)O [N-ALPHA-ACETYL-L-ASPARAGINE]	LC retention time [21]: 1.08 min; LC retention time [22]: 1.35 min; LC retention time [23]: 1.38 min; LC retention time [24]: 0.89 min
	12.3 min	12.2 min	2.67 min	2.64 min	O=C(O)C1(O)CC(O)C(O)C(O)C1 (stereo not given) [QUINATE]	LC retention time [22]: 1.35 min; LC retention time [23]: 1.38 min; LC retention time [24]: 0.89 min
		12.3 min	2.67 min	2.67 min	Nc1ncnc2c1ncn2[C@@H]1O[C@H](CSCC[C@H]([NH3+])C(=O)[O-])[C@@H](O)[C@H]1O [S-(5'-ADENOSYL)-L-HOMOCYSTEINE]	LC retention time [16]: 0.9 min; LC retention time [23]: 1.38 min; LC retention time [12]: 2.74 min; LC retention time [19]: 1.34 min; LC retention time [20]: 1.09 min
11.4 min	12.3 min	12 min		2.48 min	NCCS(=O)(=O)O [TAURINE]	
14 min		13.6 min	2.7 min	2.67 min	O=c1ccn(C2OC(COP(=O)(O)O)C(O)C2O)c(=O)[nH]1 (stereo not given) [URIDINE-5-MONOPHOSPHATE]	LC retention time [25]: 0.92 min; LC retention time [21]: 1.08 min; LC retention time [22]: 1.35 min; LC retention time [24]: 0.89 min
